pIC50: −log10 of the molar value.
Legend:
[1] = tested on: TGF-beta induced SMAD signaling; assay: RDSR (RD SMAD reporter) Cellular Reporter Assay; type: cell-based; details: Homo sapiens; 200 pg/ml rhTGF-beta1, 24 h; read-out: RD-SMAD reporter activity
Outline: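 Human rhabdomyosarcoma RD cells stably carrying an SBE-driven luc2P luciferase reporter. Inhibition of SMAD signaling was quantified from ONE-Glo luminescence.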

[2] = tested on: TGF-β1 mediated alpha-SMA expression in primary human bronchial fibroblasts derived from IPF patients; assay: Fibroblast to Myofibroblast Transformation (FMT) assay; details: for max PIN of TGF-β1 mediated alpha-SMA expression: in at least two donors
Protocol: To test the ability of compounds of the invention to inhibit the TGF-β1 dependent transition of fibroblasts to myofibroblasts in a relevant disease model of IPF, a study was carried out using an FMT assay employing lung fibroblasts from IPF patients. In this model the transition of fibroblasts to myofibroblasts is determined by the expression of the biomarker alpha smooth muscle actin (SMA).
Each drug concentration condition was evaluated in biological duplicates. One hour after compound addition, cells were stimulated with 1.25 ng/ml of TGF-01 and cultured for 72 hours thereafter. At the end of 72 hours cells were fixed using formaldehyde. The results were generated using high content imaging after staining cells using the nuclear stain DAPI as well as evaluation of the expression of alpha SMA. […] As a negative control 0.1% DMSO was used matching the DMSO concentration in treated wells.

ALK-5 = ALK-5 (Homo sapiens (Human), UniProt P36897); assay: LanthaScreen Eu Kinase Binding Assay, ALK-5; details: for pIC50: read-out: Kinase Inhibition: ALK5 IC50
Outline: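 TR-FRET binding assay: compound displaces an ATP-site-directed Alexa Fluor tracer from kinase detected by Eu-labelled anti-tag antibody, lowering FRET. 10-point, 3-fold serial dilutions, 60 min incubation at room temperature, read without development step. Dose-response curves fitted.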

ALK-5, sequence (P36897 34-503): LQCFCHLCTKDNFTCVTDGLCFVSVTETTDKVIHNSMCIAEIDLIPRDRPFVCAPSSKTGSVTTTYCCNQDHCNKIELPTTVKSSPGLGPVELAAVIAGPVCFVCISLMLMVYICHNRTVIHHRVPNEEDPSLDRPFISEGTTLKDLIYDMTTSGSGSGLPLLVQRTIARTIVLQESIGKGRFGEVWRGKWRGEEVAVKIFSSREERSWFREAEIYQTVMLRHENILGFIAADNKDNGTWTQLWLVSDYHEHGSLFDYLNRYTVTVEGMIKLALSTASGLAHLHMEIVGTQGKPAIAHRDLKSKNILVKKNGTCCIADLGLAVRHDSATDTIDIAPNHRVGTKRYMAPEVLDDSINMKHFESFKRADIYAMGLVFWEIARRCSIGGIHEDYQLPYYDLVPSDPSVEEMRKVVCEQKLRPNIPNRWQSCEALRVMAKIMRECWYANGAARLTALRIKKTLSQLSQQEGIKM

| Compound | pIC50 [1] | LogM IC50 αSMA ([2]; donor IPF05) [LogM] | Max PIN (%) ([2]; donor IPF05) | potentially toxic (>25% loss of nuclei) ([2]; donor IPF05) | LogM IC50 αSMA ([2]; donor IPF06) [LogM] | Max PIN (%) ([2]; donor IPF06) | potentially toxic (>25% loss of nuclei) ([2]; donor IPF06) | LogM IC50 αSMA ([2]; donor IPF08) [LogM] | Max PIN (%) ([2]; donor IPF08) | potentially toxic (>25% loss of nuclei) ([2]; donor IPF08) | inhibition of TGF-β-mediated alpha-SMA expression ([2]; in all three donors) | max PIN of TGF-β1 mediated alpha-SMA expression [2] | Kinase Selectivity: ALK2 IC50/ ALK5 IC50 (ALK-5) | pIC50 (ALK-5) |
| --- | --- | --- | --- | --- | --- | --- | --- | --- | --- | --- | --- | --- | --- | --- |
| Cc1cccc2c(Nc3ccnc(Nc4cccc(N5CCOCC5)c4)n3)cnnc12 [EX-11, N4-(8-methylcinnolin-4-yl)-N2-(3-morpholinophenyl)pyrimidine-2,4-diamine] | > 7.00 | −7.2 | 107.2 | >−6.0 | −7.0 | 112.9 | >−5.5 | −7.3 | 103.7 | >−6.0 | full concentration-dependent inhibition | greater than 75 | (++) (10<ALK2/ALK5<100=[++]) | > 8.00 |
| Cc1cccc2c(Nc3ccnc(Nc4ccc(N5CCOCC5)cc4)n3)cnnc12 [EX-10, N4-(8-methylcinnolin-4-yl)-N2-(4-morpholino-phenyl)-pyrimidine-2,4-diamine] | > 7.00 | −6.8 | 106.4 | >−5.5 | −6.7 | 110.3 | – | −7.0 | 100.3 | >−5.5 | – | greater than 75 | (++) (10<ALK2/ALK5<100=[++]) | > 8.00 |

From patent US11746103B2, “ALK-5 inhibitors and uses thereof” (Sumitomo Pharma Oncology, Inc., priority 2020, dated 2023)
